Patent publication US20090274691A1, “Use of CD25 binding molecules in steroid-resistant patients” (priority 2001, published 2009)
“Also recorded” adds a separate entry of the source. Read-outs that look alike come from different tables or passages of the source.

Tests used:
[1] = test system: PHA-stimulated lymphocytes; experiment: Lymphocyte steroid sensitivity: dexamethasone inhibition of PHA-stimulated proliferation with and without basiliximab (Example 1); assay type: cell-based, human; settings: for Steroid-sensitive (SS) or Steroid-resistant (SR): class by Imax with dexamethasone alone; for PHA-stimulated lymphocyte proliferation (cpm): dexamethasone 10^-6 mol/l; for PHA-stimulated lymphocyte proliferation (cpm) / % suppression / Imax (%): basiliximab 1 mg/l where added; for % suppression: dexamethasone 10^-7 mol/l; for Imax (%): inhibition of proliferation at dexamethasone 10^-6 mol/l
Procedure: (§1) Measurement of lymphocyte steroid sensitivity: The sensitivity of peripheral blood lymphocytes to glucocorticoids is assessed in a functional assay i.e. an in vitro proliferation assay stimulated by phytohaemagglutinin (PHA) and inhibited by dexamethasone. (Hearing S D, et al. Gut 1999; 45:382-8; Hearing S D, et al. J Clin Endocrinol Metab 1999; 84:4149-54). Peripheral blood samples are collected at 09:00 hours, and peripheral blood mononuclear cells (PBMC) are separated by buoyancy centrifugation. Buoyancy centrifugation includes the separation of lymphocytes from the blood sample by centrifugation over a ficol gradient. Ficol allows red blood cells to fall through, but prevents the through-movement of lymphocytes. Peripheral blood mononuclear cells (lymphocytes and marocyes) are collected from the ficol/plasma interface. PBMC proliferation is stimulated with PHA and inhibited with dexamethasone at serial 10 fold dilutions between 10^−6 and 10^−10 mol/1. i.e. 10^−6, 10^−7, 10^−8, 10^−9, 10^−10 mol/1. Cell proliferation is measured by tritiated thymidine uptake i.e. after 2 days of incubation, radioisotape labelled thymidine (^3H-thymidine) is added to the lymphocyte culture medium and became incorporated into the DNA of proliferating lymphocyes. After 6 hours the cells are transferred from the incubator and collected on a filter mat using a cell harvester. The cells are then washed out of the well. The lymphocyte DNA that has incorporated the thymidine is trapped in the filter paper. When radioactivity levels are measured the wells which contain high numbers of actively proliferating lymphocytes (and thus will have incorporated lots of thymidine into the DNA) will have high radioactivity levels. […] The results are calculated as mean counts per minute (cpm) of triplicate cultures. Thymidine incorporation for each concentration of dexamethasone is compared to that of PHA stimulated T lymphocytes in the absence of dexamethasone, and expressed as a percentage of the uninhibited positive control. The effect of different concentrations of basiliximab on lymphocyte proliferation is also studied. In addition, an equal concentration of basiliximab is added to each cell culture medium at all concentrations of dexamethasone and the antiproliferative effect measured.
Effect of […]® on steroid sensitivity: For all eight subjects, PHA-stimulated lymphocytes are cultured in the presence of increasing concentrations of dexamethasone (10^−10-10^−6 mol/l) in the presence and absence of basiliximab (1 mg/l). In previous studies of ulcerative colitis carried out by the inventor, maximal suppression (Imax)<60% correlated with a poor response to steroid therapy (clinical steroid resistance). The exact value of Imax cannot be measured as it is the inhibition at an infinitely high level of dexamethasone. Thus, the percentage inhibition of proliferation observed at the maximum dexamethasone concentration applied (10^−6 mol/l) is used as the measure of Imax. In practice, there is good agreement between Imax and the estimated asymptotic value for maximal inhibition obtained from dose-response curves (Hearing S D et al (1999) Clin. Endoctrinol. Metab 84:4149-54). A concentration of dexamethasone of 10^−7 mol/l is approximately equivalent in terms of glucocorticoid activity to the serum concentrations of hydrocortisone achieved with intravenous therapy at standard doses. Thus, to make comparisons with the potential effect of basiliximab in vivo, the steroid sensitising effect of basiliximab at this concentration of dexamethasone may also be of interest. […] The subjects are shown in decreasing order of steroid sensitivity (with the most sensitive on the left).

[2] = test system: phytohaemagglutinin stimulated lymphocytes; experiment: Lymphocyte steroid sensitivity (Imax) with and without basiliximab, 32 subjects (Example 2); assay type: cell-based, human
Procedure: Peripheral blood lymphocytes are isolated from 32 subjects (25 healthy volunteers and 7 patients with quiescent Ulcerative Colitis), on 41 occasions, using buoyant density centrifugation. Lymphocyte steroid sensitivity is assessed by measuring the antiproliferative effect of dexamethasone (DEX) on phytohaemagglutinin stimulated lymphocytes. Maximum steroid induced suppression is expressed as a % of control lymphocyte proliferation (Imax). Imax is measured in the absence and presence of basiliximab (1 mg/L).

ulcerative colitis = settings: chronically active, steroid-resistant or steroid-dependant ulcerative colitis; cited from earlier work
steroid-resistant asthma = settings: after 8 weeks; cited from earlier work
[3] = at the dosage levels employed; cited from earlier work
[4] = test system: PHA stimulated peripheral blood lymphocytes; experiment: PHA-induced lymphocyte proliferation (tritiated thymidine uptake), basiliximab in the absence of steroids; assay type: cell-based, human; settings: for PHA-induced cell proliferation (cpm) / Inhibition (%): basiliximab 1 mg/l, absence of steroids; for Inhibition (%): vs PHA alone
Procedure: as §1
Effect of […]® on lymphocyte proliferation: Serum concentration of 0.2 mg/l of basiliximab produces >90% IL-2R occupancy. To test the antiproliferative in vitro effect of basiliximab, various concentrations of between 0.01 and 10 mg/l of basiliximab are incubated with lymphocytes in the absence of steroids. These assays confirm that an in vitro concentration of >0.1 to 0.3 mg/l basiliximab is required to produce the in vitro effect of basiliximab. For further studies on the same subjects, a concentration of 1 mg/l is used. In total, the same eight subjects are studied in each experiment. The effect of basiliximab at a concentration of 1 mg/l on PHA-induced cell proliferation in the absence of steroids is shown in Table 1

IL-2R = target: T1, IL-2R (Homo sapiens, UniProt P01589); settings: serum concentration of 0.2 mg/l; cited from earlier work
T1 sequence (P01589 22-272): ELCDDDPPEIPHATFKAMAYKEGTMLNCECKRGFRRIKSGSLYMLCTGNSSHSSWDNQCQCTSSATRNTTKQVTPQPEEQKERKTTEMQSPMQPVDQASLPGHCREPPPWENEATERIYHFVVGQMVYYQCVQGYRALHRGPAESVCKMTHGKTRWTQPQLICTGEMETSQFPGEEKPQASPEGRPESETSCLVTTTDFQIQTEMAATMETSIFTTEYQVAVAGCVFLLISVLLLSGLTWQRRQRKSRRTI

[5] = test system: peripheral blood lymphocytes; settings: high concentrations of prednisolone, cited from earlier work

In the case of C[C@@H]1C[C@H]2[C@@H]3CCC4=CC(=O)C=C[C@]4(C)[C@@]3(F)[C@@H](O)C[C@]2(C)[C@@]1(O)C(=O)CO [Dexamethasone, dexamethasone], the “Steroid-sensitive (SS) or Steroid-resistant (SR)” value (from here on “Steroid-sensitive … (SR)”) ([1]; subject 1) is reported as “SS (steroid-sensitive (Imax>60%; subjects 1-4))”, the “PHA-stimulated lymphocyte proliferation (cpm)” value ([1]; subject 1) is reported as 3100 cpm and the “% suppression” value ([1]; subject 1) is reported as 87%. For the same compound, the “Imax (%)” value ([1]; subject 1) was 92%, the “Steroid-sensitive … (SR)” value ([1]; subject 2) was “SS (steroid-sensitive (Imax>60%; subjects 1-4))” and the “PHA-stimulated lymphocyte proliferation (cpm)” value ([1]; subject 2) was 4109 cpm. The “% suppression” value ([1]; subject 2) was 79%, the “Imax (%)” value ([1]; subject 2) was 84% and the “Steroid-sensitive … (SR)” value ([1]; subject 3) was “SS (steroid-sensitive (Imax>60%; subjects 1-4))”. The “PHA-stimulated lymphocyte proliferation (cpm)” value ([1]; subject 3) was 9477 cpm, the “% suppression” value ([1]; subject 3) was 65% and the “Imax (%)” value ([1]; subject 3) was 77%. For the same compound, the “Steroid-sensitive … (SR)” value ([1]; subject 4) was “SS (steroid-sensitive (Imax>60%; subjects 1-4))”, the “PHA-stimulated lymphocyte proliferation (cpm)” value ([1]; subject 4) was 11568 cpm and the “% suppression” value ([1]; subject 4) was 42%. The “Imax (%)” value ([1]; subject 4) was 64%, the “Steroid-sensitive … (SR)” value ([1]; subject 5) was “SR (steroid-resistant (Imax<60%; subjects 5-8))” and the “PHA-stimulated lymphocyte proliferation (cpm)” value ([1]; subject 5) was 21685 cpm. For the same compound, the “% suppression” value ([1]; subject 5) was 20%, the “Imax (%)” value ([1]; subject 5) was 52% and the “Steroid-sensitive … (SR)” value ([1]; subject 6) was “SR (steroid-resistant (Imax<60%; subjects 5-8))”. The “PHA-stimulated lymphocyte proliferation (cpm)” value ([1]; subject 6) was 36495 cpm, the “% suppression” value ([1]; subject 6) was 32% and the “Imax (%)” value ([1]; subject 6) was 45%. The “Steroid-sensitive … (SR)” value ([1]; subject 7) was “SR (steroid-resistant (Imax<60%; subjects 5-8))”, the “PHA-stimulated lymphocyte proliferation (cpm)” value ([1]; subject 7) was 18669 cpm and the “% suppression” value ([1]; subject 7) was 29%. The “Imax (%)” value ([1]; subject 7) was 35%, the “Steroid-sensitive … (SR)” value ([1]; subject 8) was “SR (steroid-resistant (Imax<60%; subjects 5-8))” and the “PHA-stimulated lymphocyte proliferation (cpm)” value ([1]; subject 8) was 24681 cpm. For the same compound, the “% suppression” value ([1]; subject 8) was 36%, the “Imax (%)” value ([1]; subject 8) was 33% and the “Median Imax (%)” value ([2]; 32 subjects on 41 occasions, basiliximab 1 mg/L where added) was 78.0%.
In the case of Cn1cnc([N+](=O)[O-])c1Sc1ncnc2nc[nH]c12 [Azathioprine], the “delayed onset of action” value (ulcerative colitis) is listed as 34 months.
In the case of CN(Cc1cnc2nc(N)nc(N)c2n1)c1ccc(C(=O)N[C@@H](CCC(=O)O)C(=O)O)cc1 [methotrexate], the bronchial muscosal inflammation (steroid-resistant asthma) is given as “reduced” and the lymphocyte steroid sensitivity (steroid-resistant asthma) is given as “increased”.
In the case of daclizumab, the “Side-effects / safety of administration” value [3] is listed as “safe”.
With basiliximab the “Modulation of lymphocyte steroid sensitivity (LSS) of steroid-resistant subjects” value ([1]; effect on Imax, subjects 5-8, basiliximab 1 mg/l) was “all become Steroid-sensitive”, the “Enhancement of the anti-proliferative effect of DEX” value ([2]; basiliximab 1 mg/L, Wilcoxon signed-rank test, p<0.0001) was “significantly enhanced; also recorded: marked in vitro steroid enhancing effect” and the “Modulation of steroid-resistant subjects (Imax<60%) to steroid-sensitive” value ([2]; in vitro, basiliximab 1 mg/L) was “All 8 steroid-resistant subjects (Imax<60%) are modulated (in vitro) to steroid-sensitive”. For the same compound, the “in vitro concentration required to produce the in vitro (antiproliferative) effect” value ([4]; 0.01 to 10 mg/l incubated with lymphocytes in the absence of steroids) was 0.1 to 0.3 mg/L, the “PHA-induced cell proliferation (cpm)” value ([4]; mean of 8 subjects) was 23943 cpm and the “Inhibition (%)” value ([4]; mean of 8 subjects) was 37.8%. For the same compound, the “PHA-induced cell proliferation (cpm)” value ([4]; subject 1) was 21827 cpm, the “Inhibition (%)” value ([4]; subject 1) was 43.5% and the “PHA-induced cell proliferation (cpm)” value ([4]; subject 2) was 15157 cpm. For the same compound, the “Inhibition (%)” value ([4]; subject 2) was 39.9%, the “PHA-induced cell proliferation (cpm)” value ([4]; subject 3) was 27239 cpm and the “Inhibition (%)” value ([4]; subject 3) was 33.3%. The “PHA-induced cell proliferation (cpm)” value ([4]; subject 4) was 27538 cpm, the “Inhibition (%)” value ([4]; subject 4) was 15.4% and the “PHA-induced cell proliferation (cpm)” value ([4]; subject 5) was 21446 cpm. The “Inhibition (%)” value ([4]; subject 5) was 52.8%, the “PHA-induced cell proliferation (cpm)” value ([4]; subject 6) was 35003 cpm and the “Inhibition (%)” value ([4]; subject 6) was 47.1%. The “PHA-induced cell proliferation (cpm)” value ([4]; subject 7) was 16122 cpm, the “Inhibition (%)” value ([4]; subject 7) was 44.2% and the “PHA-induced cell proliferation (cpm)” value ([4]; subject 8) was 27209 cpm. For the same compound, the “Inhibition (%)” value ([4]; subject 8) was 26.4%, the IL-2R occupancy (IL-2R) was greater than 90% and the “Side-effects / safety of administration” value [3] was “safe”.
For C[C@]12C=CC(=O)C=C1CC[C@@H]1[C@@H]2[C@@H](O)C[C@@]2(C)[C@H]1CC[C@]2(O)C(=O)CO [prednisolone], the “percentage of apoptotic cells” value ([5]; lymphocytes of steroid-resistant SLE group) is given as 44.8% and the “percentage of apoptotic cells” value ([5]; lymphocytes of steroid-sensitive SLE group) is given as 68.8%.
